PubChem BioAssay AID330 (DTP/NCI, 2004)
Where “and” joins values, the source holds several entries; their conditions need not be identical. Equal entries are not always repeated. Inconclusive results and toxic doses are left out.

Tested on: P388 leukemia ip, CD2F1 mice, survival T/C
Test: NCI In Vivo Anticancer Drug Screen. Data for tumor model P388 Leukemia (intraperitoneal) in CD2F1 (CDF1) mice
Conditions: endpoint: median survival time, higher = longer survival
Procedure, shortened: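 Mice carrying the transplanted tumor received test compound or vehicle. Survival was recorded in each group, and the value is the treated-group measurement divided by that of the vehicle-treated control group.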

[1] = dose: 50.0 mg/kg/injection, schedule: Q01DX005 (ip), vehicle: Klucel (hydroxypropylcellulose) (HPC)
[2] = dose: 100.0 mg/kg/injection, schedule: Q01DX005 (ip), vehicle: Klucel (hydroxypropylcellulose) (HPC)
[3] = dose: 200.0 mg/kg/injection, schedule: Q01DX005 (ip), vehicle: Klucel (hydroxypropylcellulose) (HPC)
[4] = dose: 25.0 mg/kg/injection, schedule: Q01DX009 (ip), vehicle: saline
[5] = dose: 25.0 mg/kg/injection, schedule: Q01DX005 (ip), vehicle: Klucel (hydroxypropylcellulose) (HPC)
[6] = dose: 60.0 mg/kg/injection, schedule: Q01DX005 (ip), vehicle: saline with Tween-80
[7] = dose: 50.0 mg/kg/injection, schedule: Q01DX005 (ip), vehicle: saline
[8] = dose: 100.0 mg/kg/injection, schedule: Q01DX005 (ip), vehicle: saline
[9] = dose: 50.0 mg/kg/injection, schedule: Q01DX005 (ip), vehicle: saline with Tween-80
[10] = dose: 100.0 mg/kg/injection, schedule: Q01DX005 (ip), vehicle: saline with Tween-80
[11] = dose: 120.0 mg/kg/injection, schedule: Q01DX005 (ip), vehicle: saline with Tween-80
[12] = dose: 240.0 mg/kg/injection, schedule: Q01DX005 (ip), vehicle: saline with Tween-80
[13] = dose: 100.0 mg/kg/injection, schedule: Q04DX003 (ip), vehicle: saline with Tween-80
[14] = dose: 200.0 mg/kg/injection, schedule: Q04DX003 (ip), vehicle: saline with Tween-80
[15] = dose: 25.0 mg/kg/injection, schedule: Q01DX009 (ip), vehicle: water
[16] = dose: 200.0 mg/kg/injection, schedule: Q01DX005 (ip), vehicle: saline

`Br[CH](Br)[Hg][c]1ccccc1` was tested, and the T/C (dose: 100.0 mg/kg/injection, schedule: Q01DX001 (ip), vehicle: Klucel (hydroxypropylcellulose) (HPC)) was 93 % of control and the T/C (dose: 200.0 mg/kg/injection, schedule: Q01DX001 (ip), vehicle: Klucel (hydroxypropylcellulose) (HPC)) was 96 % of control.

For `CCOC(=O)/C(C#N)=N/Nc1ccc(S(=O)(=O)NC(C)=O)cc1`, the T/C [1] was 96 % of control, the T/C [2] was 92 % of control and the T/C [3] was 96 % of control.

`CCC/C(=N\O)S(=O)(=O)c1ccc(NN=O)nc1` was tested, and the T/C (dose: 3.12 mg/kg/injection, schedule: Q01DX009 (ip), vehicle: saline) was 107 % of control, the T/C (dose: 6.25 mg/kg/injection, schedule: Q01DX009 (ip), vehicle: saline) was 108 % of control and 110 % of control and the T/C (dose: 12.5 mg/kg/injection, schedule: Q01DX009 (ip), vehicle: saline) was 116 % of control and 118 % of control. For the same compound, the T/C [4] was 150 % of control.

In the case of `Cn1c(=O)oc2cc(N)c(Cl)cc21`, the T/C (dose: 12.5 mg/kg/injection, schedule: Q01DX005 (ip), vehicle: Klucel (hydroxypropylcellulose) (HPC)) is reported as 88 % of control, the T/C [5] is reported as 94 % of control and the T/C [1] is reported as 100 % of control and 87 % of control.

For `COc1cc2c(cc1OC)C13CCN4CC5=CCOC6CC(=O)N2C1C6C5CC43` (stereo not given), the T/C (dose: 7.5 mg/kg/injection, schedule: Q01DX005 (ip), vehicle: saline with Tween-80) was 102 % of control, the T/C (dose: 12.5 mg/kg/injection, schedule: Q01DX009 (ip), vehicle: saline with Tween-80) was 100 % of control and the T/C (dose: 15.0 mg/kg/injection, schedule: Q01DX005 (ip), vehicle: saline with Tween-80) was 97 % of control. For the same compound, the T/C (dose: 25.0 mg/kg/injection, schedule: Q01DX009 (ip), vehicle: saline with Tween-80) was 100 % of control, the T/C (dose: 25.0 mg/kg/injection, schedule: Q04DX003 (ip), vehicle: saline sonified) was 100 % of control and the T/C (dose: 30.0 mg/kg/injection, schedule: Q01DX005 (ip), vehicle: saline with Tween-80) was 100 % of control. For the same compound, the T/C (dose: 50.0 mg/kg/injection, schedule: Q01DX009 (ip), vehicle: saline with Tween-80) was 100 % of control, the T/C (dose: 50.0 mg/kg/injection, schedule: Q04DX003 (ip), vehicle: saline sonified) was 95 % of control and the T/C [6] was 93 % of control.

`CN(C)CCNC1c2ccccc2CCc2ccccc21` was tested, and the T/C [7] was 104 % of control and the T/C [8] was 100 % of control.

`CN1CCN(CC2C(=O)C3CCC2C3)CC1` (stereo not given) was tested, and the T/C [9] was 93 % of control and the T/C [10] was 101 % of control.

`NC(=O)N(c1ccccc1)c1ccccn1` was tested, and the T/C [6] was 97 % of control, the T/C [11] was 97 % of control and the T/C [12] was 94 % of control.

In the case of `CCOC(=O)N1C=CC2(C=C1)CCCCC2`, the T/C (dose: 25.0 mg/kg/injection, schedule: Q04DX003 (ip), vehicle: Klucel (hydroxypropylcellulose) (HPC)) is reported as 101 % of control and the T/C (dose: 50.0 mg/kg/injection, schedule: Q04DX003 (ip), vehicle: Klucel (hydroxypropylcellulose) (HPC)) is reported as 106 % of control.

For `CCN(CC)CCOC(=O)Nc1cc(Cl)cc(Cl)c1`, the T/C [6] was 100 % of control, the T/C [11] was 101 % of control and the T/C [12] was 100 % of control.

For `CC(=O)OC1OC(CF)C(OC(C)=O)C1OC(C)=O` (stereo not given), the T/C (dose: 50.0 mg/kg/injection, schedule: Q04DX003 (ip), vehicle: saline with Tween-80) was 112 % of control, the T/C [13] was 100 % of control and the T/C [14] was 93 % of control.

`CCOC(=O)c1c[n+](C2OC(COC(=O)c3ccccc3)C(OC(=O)c3ccccc3)C2OC(=O)c2ccccc2)ccc1N` (stereo not given) was tested, and the T/C (dose: 12.5 mg/kg/injection, schedule: Q01DX005 (ip), vehicle: saline with Tween-80) was 98 % of control, the T/C (dose: 25.0 mg/kg/injection, schedule: Q01DX005 (ip), vehicle: saline with Tween-80) was 107 % of control and the T/C [9] was 105 % of control and 92 % of control.

In the case of `CC(NC(=O)OCc1ccccc1)C(=O)NC1C(O)OC(CO)C(O)C1O` (stereo not given), the T/C (dose: 12.5 mg/kg/injection, schedule: Q01DX009 (ip), vehicle: other) is reported as 96 % of control, the T/C (dose: 25.0 mg/kg/injection, schedule: Q01DX009 (ip), vehicle: other) is reported as 100 % of control and the T/C [15] is reported as 104 % of control. For the same compound, the T/C (dose: 50.0 mg/kg/injection, schedule: Q01DX009 (ip), vehicle: water) was 93 % of control, the T/C (dose: 100.0 mg/kg/injection, schedule: Q01DX009 (ip), vehicle: water) was 106 % of control and the T/C (dose: 200.0 mg/kg/injection, schedule: Q01DX009 (ip), vehicle: water) was 102 % of control.

With `CCCCCCCCN=Cc1c(O)c(O)c(C(C)C)c2cc(C)c(-c3c(C)cc4c(C(C)C)c(O)c(O)c(C=NCCCCCCCC)c4c3O)c(O)c12` the T/C [5] was 95 % of control, the T/C [1] was 98 % of control and the T/C [2] was 98 % of control. The T/C [3] was 93 % of control.

With `CCCCCC(O)CCCCC` the T/C [13] was 100 % of control, the T/C [14] was 109 % of control and the T/C (dose: 400.0 mg/kg/injection, schedule: Q04DX003 (ip), vehicle: saline with Tween-80) was 100 % of control.

`CCOC(=O)CCCCc1cccc2ccccc12` was tested, and the T/C (dose: 50.0 mg/kg/injection, schedule: Q01DX009 (ip), vehicle: other) was 103 % of control, the T/C (dose: 100.0 mg/kg/injection, schedule: Q01DX009 (ip), vehicle: other) was 100 % of control and the T/C (dose: 200.0 mg/kg/injection, schedule: Q01DX009 (ip), vehicle: other) was 107 % of control.

`CCc1ncc(C(C)(O)c2ccc(C)cc2)n1Cc1ccccc1` (stereo not given) was tested, and the T/C (dose: 60.0 mg/kg/injection, schedule: Q01DX005 (ip), vehicle: Klucel (hydroxypropylcellulose) (HPC)) was 90 % of control, the T/C (dose: 120.0 mg/kg/injection, schedule: Q01DX005 (ip), vehicle: Klucel (hydroxypropylcellulose) (HPC)) was 86 % of control and the T/C (dose: 240.0 mg/kg/injection, schedule: Q01DX005 (ip), vehicle: Klucel (hydroxypropylcellulose) (HPC)) was 86 % of control.

With `CCCCCCCCCCCCCCCC(=O)N(CCCN)C(C)(C)CCC(C)(C)N(CCCN)C(=O)CCCCCCCCCCCCCCC` the T/C (dose: 1.56 mg/kg/injection, schedule: Q01DX009 (ip), vehicle: water) was 101 % of control, the T/C (dose: 3.13 mg/kg/injection, schedule: Q01DX009 (ip), vehicle: water) was 107 % of control and the T/C (dose: 6.25 mg/kg/injection, schedule: Q01DX009 (ip), vehicle: water) was 114 % of control. For the same compound, the T/C (dose: 12.5 mg/kg/injection, schedule: Q01DX009 (ip), vehicle: water) was 113 % of control and the T/C [15] was 93 % of control.

In the case of `CN1CCCC1=NCCN=C1CCCN1C`, the T/C [7] is reported as 117 % of control, the T/C [8] is reported as 99 % of control and the T/C [16] is reported as 98 % of control.

In the case of `O=S(=O)(O)CCCBr`, the T/C (dose: 100.0 mg/kg/injection, schedule: Q01DX009 (ip), vehicle: saline with Tween-80) is reported as 100 % of control, the T/C (dose: 200.0 mg/kg/injection, schedule: Q01DX009 (ip), vehicle: saline with Tween-80) is reported as 104 % of control and the T/C (dose: 400.0 mg/kg/injection, schedule: Q01DX009 (ip), vehicle: saline with Tween-80) is reported as 95 % of control.

In the case of `Cc1cc2ccccc2cc1N`, the T/C (dose: 50.0 mg/kg/injection, schedule: Q01DX009 (ip), vehicle: saline) is reported as 106 % of control, the T/C (dose: 100.0 mg/kg/injection, schedule: Q01DX009 (ip), vehicle: saline) is reported as 100 % of control and the T/C (dose: 200.0 mg/kg/injection, schedule: Q01DX009 (ip), vehicle: saline) is reported as 97 % of control.

For `Cc1nnc(SCC2=C(C(=O)O)N3C(=O)C(NC(=O)Cn4cnnn4)C3SC2)s1` (stereo not given), the T/C [4] was 112 % of control and the T/C (dose: 400.0 mg/kg/injection, schedule: Q01DX009 (ip), vehicle: saline) was 112 % of control.

With `CC[C@H]1C[C@H](Cc2ccccc2)CC[C@H]1N1CCCC1` the T/C [9] was 101 % of control and the T/C [10] was 104 % of control.

In the case of `CN(C)CCn1ncc(Sc2cc([N+](=O)[O-])ccc2N)c(Cl)c1=O`, the T/C [6] is reported as 103 % of control, the T/C [11] is reported as 96 % of control and the T/C [12] is reported as 97 % of control.

With `COc1cc2c(c(Cl)c1OC)CCN(C)CC2c1ccccc1` (stereo not given) the T/C (dose: 60.0 mg/kg/injection, schedule: Q01DX005 (ip), vehicle: saline) was 102 % of control and the T/C (dose: 120.0 mg/kg/injection, schedule: Q01DX005 (ip), vehicle: saline) was 98 % of control.

In the case of `CC(=O)OC(C)C(=O)NCC(C)O` (stereo not given), the T/C (dose: 25.0 mg/kg/injection, schedule: Q01DX005 (ip), vehicle: saline) is reported as 100 % of control, the T/C [7] is reported as 103 % of control and the T/C [8] is reported as 98 % of control. The T/C [16] was 100 % of control.

For `CSc1nccc(=O)n1-c1ccccc1C`, the T/C (dose: 100.0 mg/kg/injection, schedule: Q04DX002 (ip), vehicle: Klucel (hydroxypropylcellulose) (HPC)) was 100 % of control and the T/C (dose: 200.0 mg/kg/injection, schedule: Q04DX002 (ip), vehicle: Klucel (hydroxypropylcellulose) (HPC)) was 102 % of control.

In the case of `Cc1ccc(NCCN(C)CC(C)O)c2c(=O)c3ccc(Cl)cc3sc12` (stereo not given), the T/C [1] is reported as 102 % of control, the T/C [2] is reported as 101 % of control and the T/C [3] is reported as 95 % of control.
